Test results taken from PMC6753678, “Fueling Open Innovation for Malaria Transmission-Blocking Drugs: Hundreds of Molecules Targeting Early Parasite Mosquito Stages” (Frontiers in Microbiology, 2019).
Where two headings read alike, the source gives them in different places.

Tests used:
HepG2 cells = conditions: cited from earlier work
[1] = system: P. falciparum female gametocytes; assay: P. falciparum female gametogenesis assay (Pf FGAA); conditions: 1: YES; 0: NO
[2] = system: P. falciparum female gametocytes; parameters: method as in Miguel-Blanco et al 2017; conditions: TCAMS library screen; ref Miguel-Blanco et al 2017; read-out: Pf FGAA IC50; cited from earlier work
[3] = HepG2 value reported with Pf FGAA screen, ref Miguel-Blanco et al 2017

| SMILES | HepG2 cytoxicity (Pf FGAA screen) (HepG2 cells; [3]) | Is compound selective in assay? Pf FGAA active? [1] | IC50 [2] | HepG2 cytoxicity (Pf FGAA screen) (HepG2 cells) |
| --- | --- | --- | --- | --- |
| C=CCc1cccc(CN2CCC(c3cc(=O)[nH]c(-c4ccccn4)n3)CC2)c1O [TCMDC-124851] | 11.49 µM | 0 (0: NO) | 1740 nM |  |
| CCCc1cc(=O)[nH]c(-n2nc(C)cc2NC(=O)CC(c2ccccc2)c2ccccc2)n1 [TCMDC-124940] | >100 µM | 1 (1: YES) | 1300 nM |  |
| COc1ccc(NC(=O)Nc2ccc(Nc3nc(C)cc(N4CCCC4)n3)cc2)cc1 [TCMDC-124958] | 11.89 µM | 1 (1: YES) | 1080 nM |  |
| O=C(c1ccc([N+](=O)[O-])o1)N1CCN(c2nc3c(F)cc(F)cc3s2)CC1 [TCMDC-125149] | >100 µM | 1 (1: YES) | 1310 nM |  |
| CNCCCNCc1ccc(-c2ccc(F)c(Cl)c2)o1.Cl [TCMDC-125237] | 10.60 µM | 0 (0: NO) | 1870 nM |  |
| COc1cc(OC)cc(C(=O)Nc2nc(-c3ccccn3)cs2)c1 [TCMDC-125345] | 39.82 µM | 1 (1: YES) | 360 nM |  |
| CC(Nc1cc(-c2ccccn2)nc(-c2ccccn2)n1)c1ccccc1 (stereo not drawn) [TCMDC-125420] | 6.18 µM | 1 (1: YES) | 210 nM |  |
| c1ccc(CNc2cc(-c3ccccn3)nc(-c3ccccn3)n2)cc1 [TCMDC-125421] | 13.04 µM | 1 (1: YES) | 320 nM |  |
| Fc1ccc2nc(Nc3nc(-c4ccccn4)cs3)sc2c1 [TCMDC-125540] | 58.31 µM | 1 (1: YES) | 54.3 nM |  |
| Oc1c(C(Nc2ccccn2)c2ccc(Cl)cc2Cl)ccc2cccnc12 (stereo not drawn) [TCMDC-125559] | 12.74 µM | 1 (1: YES) | 1140 nM |  |
| O=C(Nc1cc(C(F)(F)F)cc(C(F)(F)F)c1)Nc1ccc(Cl)c(Cl)c1 [TCMDC-125592] | 3.07 µM | 0 (0: NO) | 1430 nM |  |
| ON=C(c1nc2ccccc2[nH]1)c1nc2ccccc2[nH]1 [TCMDC-125758] | 4.96 µM | 1 (1: YES) | 330 nM |  |
| c1ccc(-c2nc(NC3CCCCC3)cc(C3CC3)n2)nc1 [TCMDC-125825] | 48.99 µM | 1 (1: YES) | 160 nM |  |
| CC(C)(C)c1cc(NC2CC2)nc(-c2ccccn2)n1 [TCMDC-125826] | >100 µM | 1 (1: YES) | 120 nM |  |
| CCN(CCNS(C)(=O)=O)c1ccc(N)c(C)c1.O.O=S(=O)(O)O [TCMDC-125836] | 26.14 µM | 1 (1: YES) | 1140 nM |  |
| Br.Oc1ccc(CCNCCCCCCNCCc2ccc(-c3ccccc3)cc2)cc1O [TCMDC-131268] | 13.18 µM | 0 (0: NO) | 10900 nM |  |
| Br.CC(C)(Cc1ccc(Cl)cc1)NCCCCCCNCCc1ccc(O)c(O)c1 [TCMDC-131277] | 10.97 µM | 0 (0: NO) | 9660 nM |  |
| C[C@H](Cc1ccc(OCCCCCCOc2ccc(C[C@@H](C)N[C@H](C)c3ccccc3)cc2)cc1)NC[C@H](O)c1cccc(Cl)c1.Cl [TCMDC-131564] | 4.28 µM | 0 (0: NO) | 720 nM |  |
| Br.CCc1c(CCNCCCCCCNCCc2ccc(Br)cc2)ccc(O)c1O [TCMDC-132044] | 7.96 µM | 0 (0: NO) | 1300 nM |  |
| Cc1c2ccncc2c(C)c2c1[nH]c1cc(Cc3ccccc3)c(O)cc12 [TCMDC-132053] | 1.23 µM | 0 (0: NO) | 1090 nM |  |
| CCc1c(CCNC/C=C/C=C/CNCCc2ccc(OC)c(OC)c2CC)ccc(OC)c1OC.Cl [TCMDC-132061] | 4.68 µM | 0 (0: NO) | 2560 nM |  |
| CCc1c(CCNCCCCCNCCc2ccc(OC)c(OC)c2CC)ccc(OC)c1OC.Cl [TCMDC-132064] | 4.68 µM | 0 (0: NO) | 2050 nM |  |

| SMILES | HepG2 cytoxicity (Pf FGAA screen) (HepG2 cells; [3]) | Is compound selective in assay? Pf FGAA active? [1] | IC50 [2] | HepG2 cytoxicity (Pf FGAA screen) (HepG2 cells) |
| --- | --- | --- | --- | --- |
| CCc1c(CCNCCCCCCNCCc2ccc3c(c2C)OCO3)ccc2c1OCO2.Cl [TCMDC-132093] | 3.89 µM | 0 (0: NO) | 1020 nM |  |
| Cl.N#Cc1c(F)cc(N2CCC(NCC[C@H](N)Cc3ccc(F)c(F)c3)CC2)cc1F [TCMDC-132121] |  | 0 (0: NO) | 730 nM | 4.58 µM |
| CN(C)Cc1cccc2nc(-c3csc(Cc4cc(Cl)ccc4OCc4ccccc4)n3)[nH]c12 [TCMDC-132174] | 13.04 µM | 0 (0: NO) | 2100 nM |  |
| O=C(O)C(F)(F)F.O=S(=O)(NCCN1CCCC1)c1ccc(-c2cccc(CNC3Cc4ccccc4C3)c2)cc1 [TCMDC-132215] | 6.03 µM | 0 (0: NO) | 2540 nM |  |
| O=C(O)C(F)(F)F.O=S(=O)(NCCN1CCCC1)c1ccc(-c2cccc(CNC3Cc4ccccc4C3)c2)s1 [TCMDC-132217] | 5.50 µM | 0 (0: NO) | 1290 nM |  |
| CN1CCC(NCc2cccc(-c3ccc(S(=O)(=O)NCc4ccccc4)c(F)c3)c2)CC1.O=C(O)C(F)(F)F [TCMDC-132219] | 5.13 µM | 0 (0: NO) | 2630 nM |  |
| O=C(O)C(F)(F)F.O=S(=O)(NCCN1CCCC1)c1ccc(-c2ccc(CNC3Cc4ccccc4C3)cc2)s1 [TCMDC-132234] | 5.83 µM | 0 (0: NO) | 2270 nM |  |
| Cc1cc(-c2ccc(CNC3Cc4ccccc4C3)cc2)ccc1S(=O)(=O)NCCN1CCCC1.O=C(O)C(F)(F)F [TCMDC-132243] | 5.31 µM | 0 (0: NO) | 1830 nM |  |
| COc1ccc(CNC2CCN(C)CC2)cc1-c1ccc(S(=O)(=O)NCc2ccccc2)s1.O=C(O)C(F)(F)F [TCMDC-132253] | 5.50 µM | 0 (0: NO) | 1750 nM |  |
| COc1ccc(CNC2Cc3ccccc3C2)cc1-c1ccc(S(=O)(=O)NCCN2CCCC2)s1.O=C(O)C(F)(F)F [TCMDC-132258] | 5.31 µM | 0 (0: NO) | 1390 nM |  |
| COc1ccc(CNC2Cc3ccccc3C2)cc1-c1ccc(S(=O)(=O)NCCN2CCCC2)c(F)c1.O=C(O)C(F)(F)F [TCMDC-132266] | 6.03 µM | 0 (0: NO) | 1950 nM |  |
| Cl.N[C@@H](CCNC1CCN(c2cccc(C(F)(F)F)c2)CC1)Cc1ccc(F)c(F)c1 [TCMDC-132301] | 3.76 µM | 0 (0: NO) | 440 nM |  |
| Cc1ccc(Cn2nc(N3CCNCC3)ccc2=O)cc1NC(=O)Nc1ccc(-c2ccccc2)cc1.O=C(O)C(F)(F)F [TCMDC-132580] | 7.42 µM | 0 (0: NO) | 1940 nM |  |
| O=S(=O)(Nc1cccc(F)c1CNCc1ccccn1)c1ccc(Cl)c(Cl)c1 [TCMDC-132598] | 20.42 µM | 1 (1: YES) | 1360 nM |  |
| Cc1cccc2nc(-c3ccc(-c4ccc(CNCc5ccc(CN)cc5)cc4)cc3)[nH]c12.O=C(O)C(F)(F)F [TCMDC-132813] | 18.09 µM | 0 (0: NO) | 2160 nM |  |
| NCc1ccc(CNCc2ccc(-c3ccc(-c4nc5cc(C(F)(F)F)ccc5[nH]4)s3)cc2)cc1.O=C(O)C(F)(F)F [TCMDC-132814] | 8.32 µM | 0 (0: NO) | 1020 nM |  |
| CNCCNCc1ccc(-c2ccc(-c3nc4cc(C(F)(F)F)ccc4[nH]3)s2)cc1.O=C(O)C(F)(F)F [TCMDC-132838] | 6.10 µM | 0 (0: NO) | 1280 nM |  |
| FC(F)(F)c1ccc2[nH]c(-c3ccc(-c4ccc(CNCCN5CCNCC5)cc4)cc3)nc2c1.O=C(O)C(F)(F)F [TCMDC-132865] | 16.43 µM | 1 (1: YES) | 1410 nM |  |
| Cc1cccc2nc(-c3ccc(-c4ccc(CNCCN5CCNCC5)cc4)s3)[nH]c12.O=C(O)C(F)(F)F [TCMDC-132870] | 14.29 µM | 0 (0: NO) | 1530 nM |  |
| FC(F)(F)c1ccc2[nH]c(-c3cccc(-c4cccc(CNCCN5CCNCC5)c4)c3)nc2c1.O=C(O)C(F)(F)F [TCMDC-132871] | 6.61 µM | 0 (0: NO) | 1220 nM |  |
| CCCN(CC1CC1)c1ncc(-c2cccc(CNCCC3CCCN3C)c2)cn1 (stereo not drawn) [TCMDC-133142] | 3.09 µM | 0 (0: NO) | 2180 nM |  |
| CN(CCc1ccccc1)c1ncc(-c2cccc(CNCCC3CCCN3C)c2)cn1 (stereo not drawn) [TCMDC-133143] | 2.88 µM | 0 (0: NO) | 1360 nM |  |
